Reference: patent publication US5843959A, “Methods and bicyclic polyamine compositions for the treatment of inflammation” (University of Florida Research Foundation, Inc., priority 1997, dated 1998)
Values joined by “and” are separate entries in the source; they are usually repeats but may differ in a detail not shown here. Equal values may be shown once.

Key:
[1] = test system: carrageenan-induced edema in rat paw; test: Inhibition of carrageenan-induced paw edema in rats; settings: vs vehicle control; aspirin 150 mg/kg p.o., hydrocortisone 25 mg/kg p.o., PIP[4,4,4] 30 mg/kg i.p.; >30% significant
[2] = test system: adjuvant-induced arthritis; test: Adjuvant-induced arthritis model in Lewis rats (Table 7); settings: p.o. 5 days, DiPIPs 100 mg/kg, Voltaren and indomethacin 6 mg/kg; for % FINAL INHIBITION: Day 28-0
Method: Four groups consisting of 6 male Lewis rats weighing 150-200 g were injected subcutaneously at the base of the tail with 0.1 ml of CFA. Drugs to be assayed were administered 5 days beginning on the day of the adjuvant injection. The paw volume of the right and left rear paw of each rat were measured on the day of adjuvant injection and at regular intervals for 30 days thereafter.
The emulsion was injected subcutaneously at the base of the tail and induced the arthritic state. Measurements of paw volume were made for 30 days to monitor paw swelling. Drug treatment began on Day 0.
Four groups consisting of 10 male Lewis rats weighing 150-200 g were injected subcutaneously at the base of the tail with 0.1 ml of CFA. Drugs to be assayed were administered for 5 days beginning on the day of the adjuvant injection.

[3] = test system: adjuvant-induced arthritis; settings: for Inhibition % B (5-0): 5th day after 5 doses; for Inhibition % B (5-0) / Inhibition % A (1-0): p.o.: PIP[4,4,4] 100, hydrocortisone 30, indomethacin 5 mg/kg; for Inhibition % B (5-0) / Inhibition % A (1-0) / Inhibition % C (5-1) / Inhibition % D (14-0) / Inhibition % F (18-14) / Inhibition % E (18-0): >30% significant; for Net swelling of paw volume A (1-0), average: Day 1 - Day 0, average; for Net swelling of paw volume B (5-0), average: Day 5 - Day 0, average; for Net swelling of paw volume B (5-0): Day 5 - Day 0, individual rat; for Net swelling of paw volume C (5-1), average: Day 5 - Day 1, average; for Net swelling of paw volume C (5-1): Day 5 - Day 1, individual rat; for Polyarthritis E (ears) / Polyarthritis N (noses) / Polyarthritis P (paws) / Polyarthritis T (tails): Day 19, individual rat; for Inhibition % A (1-0): first day, after one dose; for Inhibition % C (5-1): paw volume change Day 1 to Day 5; for Net swelling of paw volume D (14-0), average / Net swelling of paw volume D (14-0) / Inhibition % D (14-0) / Inhibition % F (18-14) / Net swelling of paw volume E (18-0), average / Net swelling of paw volume E (18-0) / Net swelling of paw volume F (18-14), average / Net swelling of paw volume F (18-14) / Inhibition % E (18-0): untreated paw; for Net swelling of paw volume D (14-0), average: Day 14 - Day 0, average; for Net swelling of paw volume D (14-0): Day 14 - Day 0, individual rat; for Inhibition % D (14-0): Day 14 relative to Day 0; for Inhibition % F (18-14): Day 14 to Day 18; for Net swelling of paw volume E (18-0), average: Day 18 - Day 0, average; for Net swelling of paw volume E (18-0): Day 18 - Day 0, individual rat; for Net swelling of paw volume F (18-14), average: Day 18 - Day 14, average; for Net swelling of paw volume F (18-14): Day 18 - Day 14, individual rat; for Inhibition % E (18-0): Day 18 relative to Day 0; for Weight gain reductions (in words): vs vehicle-treated animals, 18 day study
[4] = p.o. × 5: PIP[4,4,4] 100, hydrocortisone 30, indomethacin 5 mg/kg

Structure (SMILES): CC(=O)Oc1ccccc1C(=O)O [Aspirin]
- % Edema inhibition [1]: 46%

Structure (SMILES): C(CCNC1CCNCC1)CNC1CCNCC1 [DiPIP[3,4,3], N,N'-Bis(4-piperidinyl)-1,4-butanediamine]
- % FINAL INHIBITION [2]: 70% and 41%

Structure (SMILES): C[C@]12CCC(=O)C=C1CC[C@@H]1[C@@H]2[C@@H](O)C[C@@]2(C)[C@H]1CC[C@]2(O)C(=O)CO [Hydrocortisone]
- Inhibition % B (5-0) [3]: 36%
- Net swelling of paw volume A (1-0), average [3, 4]: 0.73 mL
- Net swelling of paw volume B (5-0), average [3, 4]: 1.06 mL
- Net swelling of paw volume B (5-0) [3, 4]: 0.89 mL and 0.96 mL and 0.86 mL and 0.98 mL and 1.61 mL
- Net swelling of paw volume C (5-1), average [3, 4]: 0.33 mL
- Net swelling of paw volume C (5-1) [3, 4]: 0.11 mL and 0.31 mL and 0.16 mL and 0.91 mL
- Polyarthritis E (ears) [3, 4]: -
- Polyarthritis N (noses) [3, 4]: -
- Polyarthritis P (paws) [3, 4]: + and -
- Polyarthritis T (tails) [3, 4]: -
- Inhibition % A (1-0) [3]: 12%
- Inhibition % C (5-1) [3, 4]: 60%
- Net swelling of paw volume D (14-0), average [3, 4]: 0.35 mL
- Net swelling of paw volume D (14-0) [3, 4]: 0.43 mL and 0.31 mL and 0.30 mL and 0.38 mL and 0.33 mL
- Inhibition % D (14-0) [3, 4]: 22%
- Inhibition % F (18-14) [3, 4]: 37%
- Net swelling of paw volume E (18-0), average [3, 4]: 0.54 mL
- Net swelling of paw volume E (18-0) [3, 4]: 0.53 mL and 0.38 mL and 0.66 mL and 0.72 mL and 0.41 mL
- Net swelling of paw volume F (18-14), average [3, 4]: 0.19 mL
- Net swelling of paw volume F (18-14) [3, 4]: 0.10 mL and 0.07 mL and 0.36 mL and 0.34 mL and 0.08 mL
- Inhibition % E (18-0) [3, 4]: 28%
- Weight gain reductions (in words) [3]: did not affect weight gain reductions
- % Edema inhibition [1]: 32%

Structure (SMILES): COc1ccc2c(c1)c(CC(=O)O)c(C)n2C(=O)c1ccc(Cl)cc1 [Indomethacin]
- % FINAL INHIBITION [2]: 93%
- FINAL DAY 28-0 (paw volume) [2]: 0.14
- INITIAL DAY 14-0 (paw volume) [2]: .004
- Inhibition % B (5-0) [3]: 48%
- Net swelling of paw volume A (1-0), average [3, 4]: 0.53 mL
- Net swelling of paw volume A (1-0) ([3]; Day 1 - Day 0, individual rat, p.o. × 5: PIP[4,4,4] 100, hydrocortisone 30, indomethacin 5 mg/kg): 0.53 mL and 0.58 mL and 0.51 mL and 0.45 mL
- Net swelling of paw volume B (5-0), average [3, 4]: 0.85 mL
- Net swelling of paw volume B (5-0) [3, 4]: 0.84 mL and 0.86 mL and 0.72 mL and 0.81 mL and 1.02 mL
- Net swelling of paw volume C (5-1), average [3, 4]: 0.32 mL
- Net swelling of paw volume C (5-1) [3, 4]: 0.31 mL and 0.28 mL and 0.14 mL and 0.30 mL and 0.57 mL
- Polyarthritis E (ears) [3, 4]: -
- Polyarthritis N (noses) [3, 4]: -
- Polyarthritis P (paws) [3, 4]: -
- Polyarthritis T (tails) [3, 4]: -
- Inhibition % A (1-0) [3]: 36%
- Inhibition % C (5-1) [3, 4]: 61%
- B.W. Gain (18-0), average ([3]; rat, in vivo): 8 g
- Net swelling of paw volume D (14-0), average [3, 4]: 0.28 mL
- Net swelling of paw volume D (14-0) [3, 4]: 0.20 mL and 0.40 mL and 0.26 mL and 0.42 mL and 0.12 mL
- Inhibition % D (14-0) [3, 4]: 38%
- Inhibition % F (18-14) [3, 4]: 50%
- Net swelling of paw volume E (18-0), average [3, 4]: 0.43 mL
- Net swelling of paw volume E (18-0) [3, 4]: 0.43 mL and 0.50 mL and 0.51 mL and 0.49 mL and 0.22 mL
- Net swelling of paw volume F (18-14), average [3, 4]: 0.15 mL
- Net swelling of paw volume F (18-14) [3, 4]: 0.23 mL and 0.10 mL and 0.25 mL and 0.07 mL
- Inhibition % E (18-0) [3, 4]: 43%
- Weight gain reductions (in words) [3]: did not affect weight gain reductions

Structure (SMILES): O=C(O)Cc1ccccc1Nc1c(Cl)cccc1Cl [Voltaren]
- % FINAL INHIBITION [2]: 67%
- FINAL DAY 28-0 (paw volume) [2]: .629
- INITIAL DAY 14-0 (paw volume) [2]: .232
